PMC4254008 (European journal of medicinal chemistry, 2014)

Columns and labels:
MRSA strain BAA1762 = experiment: S. aureus thigh muscle infection model, in vivo efficacy; design: species or system Swiss Webster mice; conditions: mouse thigh muscle infection model
[1] = system: Staphylococcus aureus enoyl-ACP reductase (saFabI); conditions: cited from earlier work
[2] = orally ingested, humans; cited from earlier work
[3] = in vivo; cited from earlier work
[4] = system: S. aureus infected thigh muscles; conditions: in vivo; cited from earlier work

In the case of `CCCCCCc1ccc(Oc2ccccc2C#N)c(O)c1` [PT119], the “reduction in the CFU's” value (MRSA strain BAA1762) is given as 3 log, the residence time ([1]; on saFabI) is given as 750 min and the Ki ([1]; saFabI) is given as 0.01 nM.

For `Oc1cc(Cl)ccc1Oc1ccc(Cl)cc1Cl` [triclosan], the “absorption from the gastrointestinal tract” value [2] is listed as “readily absorbed”.

For AFN-1252, the AUC/MIC [3] is listed as 20.

In the case of [^18F]FDG, the “accumulation in infected thigh relative to healthy thigh” value [4] is given as 2.3 – 2.6 times.
